Consider 16 compounds from ChEMBL document CHEMBL4811282, “Synthesis and biological evaluation of novel 2-alkoxycarbonylallylester phosphonium derivatives as potential anticancer agents” (Bioorg Med Chem Lett, 2021).

Series [1] deals with WiDr. The series can be described thus: Antiproliferative activity against human WiDr cells assessed as inhibition of cell proliferation measured by MTT assay. Type of series: functional, cell-based. Background: Tetrazolium dyes change colour on reduction, which living cells bring about.
The subject of series [2] is MCF7. The series can be described thus: Antiproliferative activity against human MCF7 cells assessed as inhibition of cell proliferation measured by MTT assay. Type of series: functional, cell-based.
Series [3] deals with MDA-MB-231. In words: Antiproliferative activity against human MDA-MB-231 cells assessed as inhibition of cell proliferation measured by MTT assay. Type of series: functional, cell-based.
The test system of series [4] is 4T1. The series can be described thus: Antiproliferative activity against mouse 4T1 cells assessed as inhibition of cell proliferation measured by MTT assay. Type of series: functional, cell-based.
Series [5] has as its system MIA PaCa-2. In words: Antiproliferative activity against human MIA PaCa-2 cells assessed as inhibition of cell proliferation measured by MTT assay. Type of series: functional, cell-based.
A short description of series [6]: Antiproliferative activity against mouse 67NR cells assessed as inhibition of cell proliferation measured by MTT assay. Type of series: functional, cell-based.
Series [7] deals with MIA PaCa-2. The series can be described thus: Antiproliferative activity against human MIA PaCa-2 cells assessed as inhibition of cell proliferation measured by SRB assay. Type of series: functional, cell-based. In general terms: The SRB assay estimates cell density from bound dye.
The nature of series [8]: Toxicity against CD-1 mouse assessed as changes in body weight at 10 mg/kg for 6 days per week measured after 14 days. Type of series: organism-based. To be noted: in vivo.
Series [9] in a line: Cytotoxicity against human HDFa cells assessed as inhibition of cell proliferation. Type of series: cell-based.
Series [10] can be described thus: Toxicity against CD-1 mouse assessed as changes in grooming pattern at 10 mg/kg for 6 days per week measured after 14 days. Type of series: organism-based. To be noted: in vivo, 336 h, time 14 day.
Series [11] in a line: Antiproliferative activity against mouse 67NR cells assessed as inhibition of cell proliferation measured by SRB assay. Type of series: functional, cell-based.
In series [12] the test system is MDA-MB-231. The series can be described thus: Antiproliferative activity against human MDA-MB-231 cells assessed as inhibition of cell proliferation measured by SRB assay. Type of series: functional, cell-based.
Series [13] concerns 4T1. The series can be described thus: Antiproliferative activity against mouse 4T1 cells assessed as inhibition of cell proliferation measured by SRB assay. Type of series: functional, cell-based.
Series [14] has as its system WiDr. The series can be described thus: Antiproliferative activity against human WiDr cells assessed as inhibition of cell proliferation measured by SRB assay. Type of series: functional, cell-based.
The subject of series [15] is MCF7. In words: Antiproliferative activity against human MCF7 cells assessed as inhibition of cell proliferation measured by SRB assay. Type of series: functional, cell-based.
Series [16] concerns 4T1. In words: Induction of mitochondrial stress in mouse 4T1 cells assessed as decrease in mitochondrial respiration in presence of oligomycin/FCCP/antimycin A/rotenone by seahorse XFe96 analyser based assay. Type of series: functional, cell-based. To be noted: dose 0.625-10 µM.
Series [17] relates to MDA-MB-231. In words: Induction of mitochondrial stress in human MDA-MB-231 cells assessed as decrease in ATP production at 0.3125 to 10 uM in presence of oligomycin/FCCP/antimycin A/rotenone by seahorse XFe96 analyser based assay. Type of series: functional, cell-based. Particulars: dose 0.3125-10 µM.
The subject of series [18] is 4T1. In words: Induction of mitochondrial stress in mouse 4T1 cells assessed as decrease in ATP production in presence of oligomycin/FCCP/antimycin A/rotenone by seahorse XFe96 analyser based assay. Type of series: functional, cell-based. Particulars: dose 0.625-10 µM.
Series [19] concerns MDA-MB-231. The series can be described thus: Induction of mitochondrial stress in human MDA-MB-231 cells assessed as decrease in mitochondrial respiration at 0.625 to 10 uM in presence of oligomycin/FCCP/antimycin A/rotenone by seahorse XFe96 analyser based assay. Type of series: functional, cell-based. To be noted: dose 0.625-10 µM.
For series [20], the system named is 4T1. The series can be described thus: Induction of mitochondrial stress in mouse 4T1 cells assessed as effect on spare respiratory capacity at 5 to 10 uM in presence of oligomycin/FCCP/antimycin A/rotenone by seahorse XFe96 analyser based assay. Type of series: functional, cell-based. To be noted: dose 5-10 µM.
Series [21] deals with MDA-MB-231. The series can be described thus: Induction of mitochondrial stress in human MDA-MB-231 cells assessed as proton leak across mitochondrial inner membrane in presence of oligomycin/FCCP/antimycin A/rotenone by seahorse XFe96 analyser based assay. Type of series: functional, cell-based. To be noted: dose 0.3125-10 µM.
The test system of series [22] is 4T1. The series can be described thus: Induction of mitochondrial stress in mouse 4T1 cells assessed as proton leak across mitochondrial inner membrane in presence of oligomycin/FCCP/antimycin A/rotenone by seahorse XFe96 analyser based assay. Type of series: functional, cell-based. Particulars: dose 0.625-10 µM.

Active and inactive are the calls of the source. No cut-off for these calls is given here.

Regarding `COC(=O)/C(=C/c1ccc(Cl)cc1)C[P+](c1ccc(OC)cc1)(c1ccc(OC)cc1)c1ccc(OC)cc1`, the IC50 in series [1] amounted to 1320 nM; in series [2], 1370 nM; in series [3] it was 3010 nM; in series [4] it was 980 nM; in series [5], 590 nM.
For the compound `C=C(C[P+](c1ccc(F)cc1)(c1ccc(F)cc1)c1ccc(F)cc1)C(=O)OC`, the IC50 came to 19000 nM in [1]; 47000 nM in series [2]; 91100 nM in series [3]; 61900 nM in series [4]; 100000 nM in [5]; 73900 nM in series [6].
For the compound `COC(=O)/C(=C/c1ccc(C)cc1)C[P+](c1ccc(OC)cc1)(c1ccc(OC)cc1)c1ccc(OC)cc1`, the IC50 turned out to be 2580 nM in [1]; 7470 nM in series [2]; 9790 nM in series [3]; 5230 nM in [4]; 340 nM in series [5]; 2780 nM in series [6].
As to `COC(=O)/C(=C/c1ccc(C#N)cc1)C[P+](c1ccc(OC)cc1)(c1ccc(OC)cc1)c1ccc(OC)cc1`, the IC50 in series [1] is 4870 nM; in [2] it was 4490 nM; in series [3], 12500 nM; in series [4], 20400 nM; in series [5] it was 7860 nM; in series [6] it was greater than 100000 nM.
With `C=C(C[P+](c1ccccc1)(c1ccccc1)c1ccccc1)C(=O)N(C)C`, the IC50 in series [1] is 81200 nM; in [2], greater than 100000 nM; in [3], greater than 100000 nM; in series [4], greater than 100000 nM; in [5], greater than 100000 nM; in [6] it was greater than 100000 nM.
In the case of `COC(=O)/C(=C/c1ccc([N+](=O)[O-])cc1)C[P+](c1ccc(OC)cc1)(c1ccc(OC)cc1)c1ccc(OC)cc1`, the IC50 in series [1] stood at 5950 nM; in [2], 8830 nM; in series [3], 8290 nM; in [4] it was 4730 nM; in series [5], 5590 nM; in series [6], 28700 nM.
With `COC(=O)/C(=C/c1ccc(OC)cc1)C[P+](c1ccc(OC)cc1)(c1ccc(OC)cc1)c1ccc(OC)cc1.[Br-]`, the IC50 was 310 nM in series [7]; 23900 nM in [9]; 1140 nM in [1]; 2560 nM in [11]; 1400 nM in [2]; 3700 nM in series [3]. Moreover, the half-inhibitory concentration (IC50) in [4] turned out to be 3360 nM; in series [12] it was 2190 nM; in [5], 1370 nM; in [13], 1830 nM; in [6], 4590 nM; in series [14], 760 nM. For the same compound, the IC50 in series [15] was 170 nM. Also, the Activity result in series [8] and in [10] was “Non-Toxic” in each case.
On to `C=C(C[P+](c1ccc(OC)cc1)(c1ccc(OC)cc1)c1ccc(OC)cc1)C(=O)OC(C)(C)C`, for which the IC50 was found to be 810 nM in series [1]; 980 nM in [2]; 2690 nM in series [3]; 1080 nM in series [4]; 1390 nM in series [5]; 2170 nM in series [6].
As to `C=C(C[P+](c1ccc(C)cc1)(c1ccc(C)cc1)c1ccc(C)cc1)C(=O)OC`, the IC50 was found to be 1480 nM in series [1]; 2430 nM in [2]; 3790 nM in series [3]; 1780 nM in series [4]; 2660 nM in [5]; 5340 nM in series [6].
Take `COC(=O)/C(=C/c1ccc(F)cc1)C[P+](c1ccc(OC)cc1)(c1ccc(OC)cc1)c1ccc(OC)cc1`: the IC50 in series [1] is 2140 nM; in series [2], 1420 nM; in series [3], 7410 nM; in [4], 4570 nM; in series [5], 1290 nM; in series [6] it was 5140 nM.
For `COC(=O)/C(=C/c1ccccc1)C[P+](c1ccc(OC)cc1)(c1ccc(OC)cc1)c1ccc(OC)cc1`, the IC50 in series [1] was 2740 nM; in series [2], 2670 nM; in series [3] it was 9270 nM; in [4] it was 7200 nM; in [5] it was 4590 nM; in series [6] it was 4870 nM.
As to `C=C(C[P+](c1ccccc1)(c1ccccc1)c1ccccc1)C(=O)OC(C)(C)C`, the IC50 worked out at 2080 nM in series [1]; 1990 nM in [2]; 2880 nM in series [3]; 2760 nM in series [4]; 2870 nM in series [5]; 7570 nM in series [6].
With `COc1ccc([P+](C/C(=C\c2ccc(Br)cc2)C(=O)OC(C)(C)C)(c2ccc(OC)cc2)c2ccc(OC)cc2)cc1`, the Activity result in series [16], in series [18], in series [21] and in series [22] was “Dose-Dependent Effect” in each case. Moreover, the result in series [17], in series [19] and in [20] was Active. Further, the IC50 in [7] worked out at 200 nM; in [9], 5500 nM; in [1], 950 nM; in series [11] it was 470 nM; in [2], 640 nM; in [3], 2100 nM. For the same compound, the IC50 was 860 nM in [4]; 580 nM in series [12]; 360 nM in series [5]; 500 nM in series [13]; 620 nM in series [6]; 140 nM in series [14]. Moreover, the IC50 in series [15] came to 63 nM.
On to `C=C(C[P+](c1ccccc1)(c1ccccc1)c1ccccc1)C(=O)OC`, for which the IC50 in series [1] turned out to be 7740 nM; in series [2], 19900 nM; in series [3] it was 28900 nM; in series [4], 14800 nM; in [5] it was 27400 nM; in series [6], 58400 nM.
As for `C=C(C[P+](c1ccc(OC)cc1)(c1ccc(OC)cc1)c1ccc(OC)cc1)C(=O)OC`, the IC50 in series [1] turned out to be 1620 nM; in series [2], 2780 nM; in [3], 4870 nM; in series [4], 1850 nM; in series [5], 3600 nM; in series [6], 10600 nM.
Take `COC(=O)/C(=C/c1ccc(Br)cc1)C[P+](c1ccc(OC)cc1)(c1ccc(OC)cc1)c1ccc(OC)cc1`: the IC50 amounted to 290 nM in series [7]; 900 nM in series [1]; 1780 nM in [11]; 1240 nM in series [2]; 1910 nM in series [3]; 1210 nM in [4]. Besides, the IC50 came out at 940 nM in series [12]; 730 nM in [5]; 1250 nM in [13]; 2900 nM in series [6]; 810 nM in [14]; 170 nM in series [15].

The term IC50 denotes the point on the concentration scale where inhibition reaches its midpoint.
